Data taken from US11780845B2 (Relay Therapeutics, Inc., priority 2019, dated 2023).

molecular target: FGFR2 (Homo sapiens (Human), UniProt P21802); experiment: FGFR2 Biochemical Caliper Assay
Method: Compounds of the present invention were also tested in a FGFR2 Biochemical Caliper Assay. Compounds were prepared in 10 mM DMSO solution and serially diluted into 11 concentrations by 3-fold dilution. […] 5 uL of ATP solution (100 uM) was added to start the reaction and the plate was incubated for 90 minutes, then 70 uL of stopping buffer (0.5M EDTA) was added to terminate the reaction. Each well was analyzed using EZ reader.

Chain of FGFR2 (P21802 22-821): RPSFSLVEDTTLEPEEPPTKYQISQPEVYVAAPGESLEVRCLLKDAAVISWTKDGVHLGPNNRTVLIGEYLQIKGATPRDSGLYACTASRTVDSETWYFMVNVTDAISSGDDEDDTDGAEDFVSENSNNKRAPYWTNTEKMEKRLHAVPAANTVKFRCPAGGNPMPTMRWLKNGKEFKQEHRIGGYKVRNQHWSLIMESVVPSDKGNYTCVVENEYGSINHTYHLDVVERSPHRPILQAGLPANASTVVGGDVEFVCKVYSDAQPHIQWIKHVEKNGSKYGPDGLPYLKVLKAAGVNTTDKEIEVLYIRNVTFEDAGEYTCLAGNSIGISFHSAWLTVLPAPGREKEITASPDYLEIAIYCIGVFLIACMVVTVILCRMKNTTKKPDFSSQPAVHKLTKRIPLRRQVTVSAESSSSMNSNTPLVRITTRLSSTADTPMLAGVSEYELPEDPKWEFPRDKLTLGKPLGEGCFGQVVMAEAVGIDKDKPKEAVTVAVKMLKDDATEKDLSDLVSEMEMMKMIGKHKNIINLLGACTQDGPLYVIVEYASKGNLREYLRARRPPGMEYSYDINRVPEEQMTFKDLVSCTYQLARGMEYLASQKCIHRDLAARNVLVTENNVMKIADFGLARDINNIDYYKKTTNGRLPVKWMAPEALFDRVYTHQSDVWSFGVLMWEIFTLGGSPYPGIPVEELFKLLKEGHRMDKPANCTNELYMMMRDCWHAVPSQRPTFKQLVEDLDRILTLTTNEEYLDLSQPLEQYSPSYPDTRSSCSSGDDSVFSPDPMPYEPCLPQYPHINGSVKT

IC50 | Compound
100 to 250 nM | Cn1c(-c2ccc(NC(=O)[C@H]3CO3)cc2)c(-c2ccc(C(=O)N3CCCC3)cc2)c2c(N)ncnc21 (single isomer, unassigned) [Example 585]
250 to 1000 nM | C=C(C)C(=O)Nc1ccc(-c2c(-c3ccc(OCC4CCCC4)cc3)c3c(N)ncnc3n2C)cc1 [Example 253]
1000 to 100000 nM | C=CC(=O)N1CCC(n2cc(-c3c(-c4c(Cl)ccc5c4OCO5)c4c(N)ncnc4n3C)cn2)CC1 [Example 616]
1000 to 100000 nM | C=C(C)C(=O)Nc1ccc(-c2c(-c3cc(OC)ncc3F)c3c(N)ncnc3n2C)cc1 [Example 139]
< 100 nM | C=CC(=O)Nc1cccc(-c2c(-c3ccc(Oc4cccc(C)n4)cc3)c3c(N)ncnc3n2C)c1 [Example 22]
< 100 nM | C=CC(=O)Nc1ccc(-c2c(-c3ccc(Oc4cccc(C)n4)cc3)c3c(N)ncnc3n2C)cc1C [Example 21]
250 to 1000 nM | C=C(C)C(=O)Nc1ccc(-c2c(-c3ccc(S(=N)(=O)N4CCCC4)cc3)c3c(N)ncnc3n2C)cc1 (centres unmarked) [Example 317]
1000 to 100000 nM | C=C(C)C(=O)Nc1ccc(-c2c(-c3ccc(S(=N)(=O)NC4CCCC4)cc3)c3c(N)ncnc3n2C)cc1 (centres unmarked) [Example 350]
1000 to 100000 nM | C=C(C)C(=O)Nc1ccc(-c2c(-c3ccc(-n4cccn4)nc3)c3c(N)ncnc3n2C)cc1 [Example 192]
100 to 250 nM | C=CC(=O)N(C)c1ccc(-c2c(-c3ccc(Oc4cccc(C)n4)c(OC)c3)c3c(N)ncnc3n2C)cc1 [Example 6]
250 to 1000 nM | C=C(C)C(=O)Nc1ccc(-c2c(-c3ccc(Sc4ccccc4)nc3)c3c(N)ncnc3n2C)cc1 [Example 225]
< 100 nM | C=CC(=O)Nc1ccc(-c2c(-c3ccc(Oc4cc(C)ccn4)c(OC)c3)c3c(N)ncnc3n2C)cc1 [Example 34]
1000 to 100000 nM | C=C(C)C(=O)Nc1ccc(-c2c(-c3ccc(C(=O)N(C)CC4CCCO4)cc3)c3c(N)ncnc3n2C)cc1 (centres unmarked) [Example 269]
1000 to 100000 nM | Cn1c(-c2ccc(NC(=O)C3=CCCC3)cc2)c(-c2ccc(C(=O)N3CCCC3)cc2)c2c(N)ncnc21 [Example 523]
1000 to 100000 nM | C=CC(=O)Nc1ccc(-c2c(C3CCN(C)CC3)c3c(N)ncnc3n2C)cc1 [Example 99]
1000 to 100000 nM | C=C(C)C(=O)Nc1ccc(-c2c(-c3ccc4c(c3)CC(=O)N4)c3c(N)ncnc3n2C)cc1 [Example 125]
1000 to 100000 nM | C=C(C)C(=O)Nc1ccc(-c2c(-c3ccc(C(=O)N(C)CC4(OC)CC4)cc3)c3c(N)ncnc3n2C)cc1 [Example 440]
1000 to 100000 nM | C=C(C)C(=O)Nc1ccc(-c2c(-c3ccc(=O)n(Cc4ccccc4)c3)c3c(N)ncnc3n2C)cc1 [Example 182]
100 to 250 nM | C=CC(=O)Nc1ccc(-c2c(-c3ccc(N(C)c4ncccn4)c(OC)c3)c3c(N)ncnc3n2C)cc1 [Example 57]
< 100 nM | Cc1cccc(Oc2ccc(-c3c(-c4cnc(C#N)nc4)n(C)c4ncnc(N)c34)cc2)n1 [Example 405]
< 100 nM | C=CC(=O)N[C@H]1C[C@@H](n2cc(-c3c(-c4ccc(Oc5ccccc5)cc4)c4c(N)ncnc4n3C)cn2)C1 [Example 606]
1000 to 100000 nM | C=C(C)C(=O)Nc1ccc(-c2c(C3=CC[C@H](C(=O)N4CC5CC5C4)CC3)c3c(N)ncnc3n2C)cc1 (some centres unmarked) [Example 581]
250 to 1000 nM | C=C(C)C(=O)Nc1ccc(-c2c(-c3ccc4c(c3)CCN4C(=O)NC)c3c(N)ncnc3n2C)cc1 [Example 232]

IC50 | Compound
1000 to 100000 nM | C=C(C)C(=O)Nc1ccc(-c2c(-c3ccc(=O)n(C4CC4)c3)c3c(N)ncnc3n2C)cc1 [Example 275]
250 to 1000 nM | C=CC(=O)Nc1ccc(-c2c(C3=CCN(C(=O)C(F)(F)F)CC3)c3c(N)ncnc3n2C)cc1 [Example 74]
1000 to 100000 nM | Cn1c(-c2ccc(N3CCC=CS3(=O)=O)cc2)c(-c2ccc(C(=O)N3CCCC3)cc2)c2c(N)ncnc21 [Example 544]
250 to 1000 nM | C=C(C)C(=O)Nc1ccc(-c2c(-c3ccc(C(=O)N(CCN)CC(F)(F)F)cc3)c3c(N)ncnc3n2C)cc1 [Example 430]
100 to 250 nM | C=C(C)C(=O)Nc1ccc(-c2c(-c3ccc(C(=O)NCCCOC)cc3)c3c(N)ncnc3n2C)cc1 [Example 333]
250 to 1000 nM | C=C(C)C(=O)Nc1ccc(-c2c(-c3ccc(C(=O)N(C)CC4COC4)cc3)c3c(N)ncnc3n2C)c(F)c1 [Example 489]
100 to 250 nM | C=C(C)C(=O)Nc1ccc(-c2c(-c3cc(F)c(C(=O)NCC(C)(C)OC)c(F)c3)c3c(N)ncnc3n2C)cc1 [Example 470]
250 to 1000 nM | C=C(C)C(=O)Nc1ccc(-c2c(-c3ccc(C(=O)N(C)C4CC(F)(F)C4)cc3)c3c(N)ncnc3n2C)cc1 [Example 273]
100 to 250 nM | C=C(C)C(=O)Nc1ccc(-c2c(-c3ccc(Nc4ncccn4)cc3)c3c(N)ncnc3n2C)cc1 [Example 59]
1000 to 100000 nM | C=C(C)C(=O)Nc1ccc(-c2c(-c3cnc(Oc4cccc(C)n4)nc3)c3c(N)ncnc3n2C)cc1 [Example 483]
1000 to 100000 nM | C=C(C)C(=O)Nc1ccc(-c2c(-c3ccn4ccnc4c3)c3c(N)ncnc3n2C)cc1 [Example 153]
1000 to 100000 nM | C=C(C)C(=O)Nc1ccc(-c2c(-c3ccc(Cc4nn[nH]n4)cc3)c3c(N)ncnc3n2C)cc1 [Example 218]
250 to 1000 nM | C=C(C)C(=O)Nc1ccc(-c2c(-c3ccc(C(=O)NCCC4COC4)cc3)c3c(N)ncnc3n2C)cc1 [Example 367]
1000 to 100000 nM | C=C(C)C(=O)Nc1ccc(-c2c(-c3ccc(C(=O)N4CC5(CCO5)C4)cc3)c3c(N)ncnc3n2C)cc1 [Example 243]
1000 to 100000 nM | C=C(C)C(=O)Nc1ccc(-c2c(-c3ccc(C(=O)N4CCCC4)cc3C(F)F)c3c(N)ncnc3n2C)cc1 [Example 588]
< 100 nM | C=C(C)C(=O)Nc1ccc(-c2c(-c3ccc(C(=O)N4CC5CC4(C)C5)cc3)c3c(N)ncnc3n2C)cc1 [Example 548]
100 to 250 nM | C=C(C)C(=O)Nc1ccc(-c2c(-c3ccc4cn(C)nc4c3)c3c(N)ncnc3n2C)cc1 [Example 164]
< 100 nM | C=CC(=O)Nc1ccc(-c2c(-c3ccc(Oc4ncccc4C)c(OC)c3)c3c(N)ncnc3n2C)cc1 [Example 42]
1000 to 100000 nM | C=C(C)C(=O)Nc1ccc(-c2c(-c3ccc4c(c3)CC(NC(C)=O)C4)c3c(N)ncnc3n2C)cc1 (centres unmarked) [Example 204]
< 100 nM | C=CC(=O)Nc1ccc(-c2c(-c3ccc(Oc4ccc(C)cn4)c(OC)c3)c3c(N)ncnc3n2C)cc1 [Example 40]
250 to 1000 nM | C=C(C)C(=O)Nc1ccc(-c2c(-c3ccc(Oc4ncc(OC)cn4)cc3)c3c(N)ncnc3n2C)cc1 [Example 450]
1000 to 100000 nM | C=C(C)C(=O)Nc1ccc(-c2c(-c3ccc(N)c(OC(F)(F)F)c3)c3c(N)ncnc3n2C)cc1 [Example 177]
1000 to 100000 nM | C=C(C)C(=O)Nc1ccc(-c2c(-c3ccc(Oc4nccc(C)n4)c(F)c3)c3c(N)ncnc3n2C)c(C(=O)N(C)C)c1 [Example 519]

IC50 | Compound
1000 to 100000 nM | C=CC(=O)N1CCC(N2CC(c3c(-c4ccc(Oc5cccc(C)n5)c(OC)c4)c4c(N)ncnc4n3C)C2)CC1 [Example 658]
250 to 1000 nM | C=CC(=O)N[C@H]1CC[C@H](c2c(-c3ccc(Oc4cccc(C)n4)c(OC)c3)c3c(N)ncnc3n2C)CC1 [Example 625]
1000 to 100000 nM | C=C(C)C(=O)Nc1ccc(-c2c(-c3ccc4[nH]c(=O)n(C)c4c3)c3c(N)ncnc3n2C)cc1 [Example 203]
< 100 nM | C=CC(=O)Nc1ccc(-c2c(-c3ccc(Oc4ncc(N)cn4)c(OC)c3)c3c(N)ncnc3n2C)cc1 [Example 87]
< 100 nM | C=CC(=O)Nc1ccc(-c2c(-c3ccc(Sc4ncccn4)cc3)c3c(N)ncnc3n2C)cc1 [Example 68]
1000 to 100000 nM | C=C(C)C(=O)Nc1ccc(-c2c(-c3ccc(C(=O)N4CC[C@H](OC)C4)cc3)c3c(N)ncnc3n2C)cc1 [Example 240]
< 100 nM | C=C(C)C(=O)Nc1ccc(-c2c(-c3ccc(C(=O)N4CC5CC4(C(F)F)C5)cc3)c3c(N)ncnc3n2C)cc1 [Example 595]
1000 to 100000 nM | C=CC(=O)N1CCC(n2cc(-c3c(-c4cc(OC)c(Cl)cc4Cl)c4c(N)ncnc4n3C)cn2)CC1 [Example 613]
1000 to 100000 nM | C=C(C)C(=O)Nc1ccc(-c2c(C3=CCCN(C(C)=O)C3)c3c(N)ncnc3n2C)cc1 [Example 136]
1000 to 100000 nM | CCC(=O)Nc1ccc(-c2c(-c3ccc(Oc4ncccn4)c(OC)c3)c3c(N)ncnc3n2C)cc1 [Example 43]
1000 to 100000 nM | C=C(C)C(=O)Nc1ccc(-c2c(-c3ccc(C(=O)N4CCCC4)nc3)c3c(N)ncnc3n2C)cc1 [Example 422]
1000 to 100000 nM | Cn1c(-c2ccc(NC(=O)CC3=CCCC3)cc2)c(-c2ccc(C(=O)N3CCCC3)cc2)c2c(N)ncnc21 [Example 542]
100 to 250 nM | C=C(C)C(=O)Nc1ccc(-c2c(-c3ccc(C(=O)NC4CCN(C)C4=O)cc3)c3c(N)ncnc3n2C)cc1 (centres unmarked) [Example 389]
1000 to 100000 nM | Cn1c(-c2ccc(N3CC=CC3=O)cc2)c(-c2ccc(C(=O)N3CCCC3)cc2)c2c(N)ncnc21 [Example 557]
100 to 250 nM | C=CC(=O)N1CCc2cc(-c3c(-c4ccc(Oc5cccc(C)n5)cc4)c4c(N)ncnc4n3C)ccc2C1 [Example 20]
1000 to 100000 nM | C=C(C)C(=O)Nc1ccc(-c2c(-c3ccc(CC(=O)N(C)C)cc3)c3c(N)ncnc3n2C)cc1 [Example 130]
1000 to 100000 nM | C=C(C)C(=O)Nc1ccc(-c2c(-c3ccc(C(=O)NCC4COCCN4C)cc3)c3c(N)ncnc3n2C)cc1 (centres unmarked) [Example 392]
250 to 1000 nM | C=C(C)C(=O)Nc1ccc(-c2c(-c3cnc(Oc4cccc(C)n4)cn3)c3c(N)ncnc3n2C)cc1 [Example 480]
250 to 1000 nM | C=C(C)C(=O)Nc1ccc(-c2c(-c3ccc(C(=O)N4CCCC4)cc3)c3c(N)ncnc3n2C)c(CC)c1 [Example 517]
100 to 250 nM | C=C(C)C(=O)Nc1ccc(-c2c(C3=CCC(C(=O)N4CCCC[C@@H]4C)CC3)c3c(N)ncnc3n2C)cc1 (some centres unmarked) [Example 404]
1000 to 100000 nM | C=C(C)C(=O)Nc1ccc(-c2c(-c3ccc(CN(C)C(C)=O)cc3)c3c(N)ncnc3n2C)cc1 [Example 198]
1000 to 100000 nM | C=C(C)C(=O)Nc1ccc(-c2c(-c3ccc(C(=O)N(C)Cc4ncno4)cc3)c3c(N)ncnc3n2C)cc1 [Example 481]
